Reference: patent US5916889A, “1,4-disubstituted piperazines” (Novo Nordisk A/S, priority 1996, dated 1999)

Test system: histamine induced paw oedema
Assay: Histamine induced paw oedema test (rat)
Format: in vivo, rat (male Sprague-Dawley)
Details: 1.0 mg/kg, intraperitoneally 15 minutes before the anaesthetics, paw swelling 20 minutes after histamine (50 microliter, 3 mg/ml)
Description: Compounds of formula I may be used to treat all painful, hyperalgesic and/or inflammatory conditions in which C-fibres play a pathophysiological role by eliciting neurogenic pain or inflammation, i.e.:
I. Histamine induced paw oedema
The rat histamine paw oedema test was performed essentially as described by Amann et al. (Europ. J. Pharmacol. 279, 227-231, 1995). In brief 250-300 g male Sprague-Dawley rats were anaesthetized with pentobarbital sodium, and placed on a 32 degree (Celsius) heated table. Ten minutes later histamine (50 micoliter, 3 mg/ml) was injected in the right hind paw and 20 minutes hereafter the paw swelling was determined by water plethysmography (Ugo Basile). Test compounds were administered intraperitoneally at 15 minutes before the anaesthetics.
Values for inhibition of histamine induced oedema response for some representative compounds are recorded in table 1.

Cl.Cl.O=C(O)c1cccnc1N1CCN(CCC=C2c3cc(Cl)ccc3OCOc3ccc(Cl)cc32)CC1 [Example 2, 2-(4-(3-(2,10-Dichloro-12H-dibenzo[d,g][1,3]dioxocin-12-ylidene)-1-propyl)-piperazin-1-yl)-3-pyridinecarboxylic acid dihydrochloride]
% Oedema inhibition: 24%

Cl.O=C(O)c1cccc(N2CCN(CCCN3c4ccccc4CCc4ccccc43)CC2)n1 [Example 8, 6-(4-(3-(10,11-Dihydro-5H-dibenz[b,f]azepin-5-yl)-1-propyl)-1-piperazinyl)-2-pyridinecarboxylic acid hydrochloride]
% Oedema inhibition: 61%
